# Experiments:
# [1] = biological target: T1, CCR5 (Homo sapiens, UniProt P51681); assay: CCR5 FLIPR Calcium assay (intracellular calcium signaling); assay type: cell-based; settings: HEK293 host cells, clone C13; agonist RANTES; Fluo-4 calcium signal
# T1 construct: expressed in transfected cells; host or cells: HEK293, clone C13, passage P4
# Procedure: (§1) The inhibitory effects of the compounds on CCR2 and CCR5 receptors were evaluated by detecting intracellular calcium signaling changes by FLIPR Calcium assay, using the IC50 values of the compounds as indicators.
# (§2) 1. Cell lines: The cells were seeded and incubated overnight at 37° C. in a 5% CO2 incubator CCR2/CCR5 density: 1 M (20 k/well)
# (§3) 2. Reagent: Fluo-4 Direct, (Invitrogen, Cat #F10471)
# (§4) The compound was prepared by dissolving in DMSO to a 10 mM solution, and the compound solution was placed in a nitrogen chamber.
# (§5) Preparation of probenecid in FLIPR assay buffer: 1 mL of FLIPR assay buffer was added to 77 mg of probenecid to make a 250 mM solution. The solution was prepared every day to keep fresh.
# (§6) 2× (8 μM) Fluo-4 Direct™ loading buffer (10 mL of each)
# (§7) 0.2 mL of probenecid was added to each 10 mL of Fluo-Direct. The final measured concentration was 2.5 mM MCP-1 was diluted in FLIPR assay buffer 1:2 for 10 spots, starting at 0.5 μM (eventually to […]). RANTES was diluted in FLIPR assay buffer 1:3 for 10 spots, starting at 0.5 μM (eventually to […]). 20 μL of serially diluted compound buffer was added to each well of the DRC plate.
# (§8) The standard compound was diluted in DMSO 1:3 for 11 points, starting at 1 mM.
# (§9) The test compound was diluted in DMSO 1:3 for 11 spots, starting at 2 mM. 250 nL of compound solution was transferred to cell plates using Echo (Greiner #781946) c) The cell plate was taken from the incubator and 20 μL of 2× Fluo-4 Direct no wash loading buffer was gently dispensed into a 384-well cell culture plate using a pipette. The volume in the final cell plate was 40 μL […]
# (§10) d) Incubation was conducted at 37° C. 5% CO2 for 50 minutes, at room temperature for 10 minutes e) The cell plate was taken from the incubator and placed in the FLIPR. The composite plate and pipette tip box were placed in the FLIPR
# (§11) 5) The “Max-Min” was calculated from Read 90 to the maximum allowed. EC80 values for each cell line were calculated using FLIPR
# (§12) 6) Agonist reference compound at 5 times EC80 concentration was prepared 2) 10 μL of agonist reference compound at 5 times EC80 concentration was transferred from the composite plate to the cell plate.
# (§13) 3) Fluorescence signals were read.
# (§14) 4) The “Max-Min” was calculated from Read 90 to the maximum allowed h) Data was analyzed by using Prism, the IC50 values of the compounds were calculated.
# [2] = biological target: T2, CCR2 (Homo sapiens, UniProt P41597); assay: CCR2 FLIPR Calcium assay (intracellular calcium signaling); assay type: cell-based; settings: HEK293 host cells, clone C7; agonist MCP-1; Fluo-4 calcium signal
# T2 construct: expressed in transfected cells; host or cells: HEK293, clone C7, passage P6
# Procedure: as §1, §2, §3, §4, §5, §6, §7, §8, §9, §10, §11, §12, §13, §14
# [3] = biological target: T3, CYP3A4 (Homo sapiens, UniProt P08684); assay: Inhibition of human liver microsomal CYP3A4 activity; assay type: in vitro ADME; settings: human liver microsomes, conclusion
# T3 construct: from tissue; host or cells: human liver microsomes
# Procedure: A total of five specific probe substrates for the five isozymes of CYP, phenacetin (CYP1A2), diclofenac (CYP2C9), (S′)-mephenytoin (CYP2C19), dextromethorphan ([…]), and midazolam (CYP3A4), were incubated respectively with human liver microsomes and the test compounds, and the reaction was initiated by the addition of reduced nicotinamide adenine dinucleotide phosphate (NADPH), and the samples were treated and the concentrations of the five metabolites produced by the specific substrates, acetaminophen, 4′-hydroxydiclofenac, 4′-hydroxymephenytoin, dextrorphan and 1′-hydroxymidazolam were measured by liquid chromatography tandem mass spectrometry (LC-MS/MS) after the end of the reaction, and the corresponding half maximal inhibitory concentrations (IC50) were calculated.
# [4] = Comparative pharmacokinetic test in mice; assay type: in vivo, C57BL/6 male mice; settings: mice
# Procedure: C57BL/6 male mice were used as test animals in the present study, and the plasma drug concentrations of the test compound WX009 and the reference compound in mice by intravenous administration or oral administration were quantified by LC/MS/MS method at different time points respectively to evaluate the pharmacokinetic characteristics of the two test drugs in mice.
# A clarified solution of the test compound was injected via tail vein into C57BL/6 mice (overnight fasting, 7-10 weeks old), and the test compound was given by gavage into C57BL/6 mice (overnight fasting, 7-10 weeks old). Approximately 30 μL of blood was collected from the jugular or tail vein at 0.0833, 0.25, 0.5, 1, 2, 4, 6, 8, and 24 hours after administration, and placed in anticoagulation tubes added with EDTA-K2, then centrifuged at 4° C. for 15 minutes at 3000 g to give the plasma. Plasma drug concentration was determined by LC-MS/MS, and relevant pharmacokinetic parameters were calculated using WinNonlin™ Version 6.3 (Pharsight, Mountain View, CA) pharmacokinetic software with a non-compartmental model linear logarithmic trapezoidal method.
# T2 sequence (P41597 whole entry, species assumed): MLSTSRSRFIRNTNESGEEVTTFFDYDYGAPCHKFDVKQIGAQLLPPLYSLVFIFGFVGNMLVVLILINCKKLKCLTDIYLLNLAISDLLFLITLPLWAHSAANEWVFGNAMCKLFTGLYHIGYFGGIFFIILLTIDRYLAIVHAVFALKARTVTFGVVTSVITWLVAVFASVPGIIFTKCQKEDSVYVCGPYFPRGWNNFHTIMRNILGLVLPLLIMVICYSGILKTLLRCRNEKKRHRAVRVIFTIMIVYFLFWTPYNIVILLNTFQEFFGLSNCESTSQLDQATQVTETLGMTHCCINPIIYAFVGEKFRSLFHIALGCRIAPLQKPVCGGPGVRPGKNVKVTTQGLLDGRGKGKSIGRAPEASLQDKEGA
# T3 sequence (P08684 whole entry): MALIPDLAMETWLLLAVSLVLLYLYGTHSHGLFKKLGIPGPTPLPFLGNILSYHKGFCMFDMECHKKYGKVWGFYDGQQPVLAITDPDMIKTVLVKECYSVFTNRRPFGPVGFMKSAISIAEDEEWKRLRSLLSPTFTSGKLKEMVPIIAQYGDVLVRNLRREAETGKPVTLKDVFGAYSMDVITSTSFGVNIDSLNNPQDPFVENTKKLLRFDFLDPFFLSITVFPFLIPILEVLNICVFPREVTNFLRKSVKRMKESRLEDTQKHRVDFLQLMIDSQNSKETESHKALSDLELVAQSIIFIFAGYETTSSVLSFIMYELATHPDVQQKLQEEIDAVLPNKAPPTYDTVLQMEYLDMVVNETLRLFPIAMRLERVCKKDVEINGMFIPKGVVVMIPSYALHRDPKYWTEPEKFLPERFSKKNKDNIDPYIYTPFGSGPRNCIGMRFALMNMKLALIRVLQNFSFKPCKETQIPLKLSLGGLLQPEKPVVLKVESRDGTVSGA
# T1 sequence (P51681 whole entry, species assumed): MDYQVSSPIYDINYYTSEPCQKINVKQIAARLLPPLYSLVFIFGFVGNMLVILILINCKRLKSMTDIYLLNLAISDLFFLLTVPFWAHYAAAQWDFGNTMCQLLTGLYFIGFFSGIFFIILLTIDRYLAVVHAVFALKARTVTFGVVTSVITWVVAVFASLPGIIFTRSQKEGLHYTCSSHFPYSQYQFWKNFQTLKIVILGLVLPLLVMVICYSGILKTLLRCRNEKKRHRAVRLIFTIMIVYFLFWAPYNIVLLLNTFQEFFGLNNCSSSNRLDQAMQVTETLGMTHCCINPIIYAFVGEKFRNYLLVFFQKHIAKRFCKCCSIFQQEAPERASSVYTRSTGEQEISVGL
Compound,IC50 [1] [µM],IC50 [2] [µM],other results
"CCCCOCCOc1ccc(-c2ccc3c(c2)C=C(C(=O)Nc2ccc([S+]([O-])Cc4c(CC)ccnc4C)cc2)CCCN3CC2CCCO2)cc1 (single isomer, unassigned) [WX008]",–,0.0152,–
"CCCCOCCOc1ccc(-c2ccc3c(c2)/C=C(/C(=O)Nc2ccc([S@+]([O-])Cc4c(CC)ccnc4C)cc2)CCCN3C[C@H]2CCCO2)cc1 (single isomer, unassigned) [WX010]",–,0.0137,–
"CCCCOCCOc1ccc(-c2ccc3c(c2)C=C(C(=O)Nc2ccc([S+]([O-])Cc4cnccc4CC)cc2)CCCN3CC2COCCO2)cc1 (single isomer, unassigned) [WX002]",0.00747,0.0195,–
"CCCCOCCOc1ccc(-c2ccc3c(c2)C=C(C(=O)Nc2ccc([S+]([O-])Cc4cnccc4CC)cc2)CCCN3CC2COCCO2)cc1 (single isomer, unassigned) [WX003]",0.0117,0.0165,–
"CCCCOCCOc1ccc(-c2ccc3c(c2)C=C(C(=O)Nc2ccc([S+]([O-])Cc4cnccc4CC)cc2)CCCN3CC2CCCO2)cc1 (single isomer, unassigned) [WX005]",0.0089,0.0209,–
"CCCCOCCOc1ccc(-c2ccc3c(c2)C=C(C(=O)Nc2ccc([S+]([O-])Cc4c(CC)ccnc4C)cc2)CCCN3CC2CCOCC2)cc1 (single isomer, unassigned) [WX006]",–,0.0159,–
CCCCOCCOc1ccc(-c2ccc3c(c2)/C=C(/C(=O)Nc2ccc([S+]([O-])Cc4cnccc4CC)cc2)CCCN3CC2CCOCC2)cc1 (stereo not shown) [WX001],0.00436,0.0176,–
"CCCCOCCOc1ccc(-c2ccc3c(c2)C=C(C(=O)Nc2ccc([S+]([O-])Cc4cnc(C)cc4CC)cc2)CCCN3CC2CCCO2)cc1 (single isomer, unassigned) [WX014]",0.0121,0.00139,–
"Cenicriviroc [(Cenicriviroc), reference compound]",–,–,Inhibition of CYP3A4 (in words) ([3]; listed as reference compound): strong inhibitory effect; Inhibition of CYP3A4 (in words) ([3]; listed as reference compounds): strong inhibition
"CCCCOCCOc1ccc(-c2ccc3c(c2)/C=C(/C(=O)Nc2ccc([S@@+]([O-])Cc4cncn4CCC)cc2)CCCN3CC2CC2)cc1 [Reference A, reference compound]",–,–,Inhibition of CYP3A4 (in words) [3]: strong inhibition
"CCCCOCCOc1ccc(-c2ccc3c(c2)/C=C(/C(=O)Nc2ccc([S@+]([O-])Cc4c(CC)ccnc4C)cc2)CCCN3C[C@H]2CCCO2)cc1 (single isomer, unassigned) [WX011]",0.00379,0.00115,–
"CCCCOCCOc1ccc(-c2ccc3c(c2)C=C(C(=O)Nc2ccc([S+]([O-])Cc4cnc(C)cc4CC)cc2)CCCN3CC2CCOCC2)cc1 (single isomer, unassigned) [WX013]",–,0.0199,–
"CCCCOCCOc1ccc(-c2ccc3c(c2)C=C(C(=O)Nc2ccc([S+]([O-])Cc4cnccc4CC)cc2)CCCN3CC2CCCO2)cc1 (single isomer, unassigned) [WX004]",0.00647,0.0194,–
"CCCCOCCOc1ccc(-c2ccc3c(c2)/C=C(/C(=O)Nc2ccc([S@@+]([O-])Cc4cncn4CCC)cc2)CCCN3CC(C)C)cc1 [(Cenicriviroc), Cenicriviroc, reference compound]",–,–,"half-life ([4]; male, C57BL/6, mouse, plasma, intravenous injection 2 mg/kg): 3.55 h; clearance ([4]; male, C57BL/6, mouse, plasma, intravenous injection 2 mg/kg, read-out: Plasma clearance rate): 0.137 L/h/kg; bioavailability ([4]; male, C57BL/6, mouse, plasma, oral 10 mg/kg): 6.02%; Area under the time-concentration curve (0-inf) ([4]; oral 10 mg/kg): 6.401 µM·h; Peak concentration ([4]; oral 10 mg/kg): 1533 nM; Peak time ([4]; oral 10 mg/kg): 1.0 h"

# Second part, led by results:
IC50 [1] [µM],IC50 [2] [µM],Compound,other results
0.0113,–,"CCCCOCCOc1ccc(-c2ccc3c(c2)/C=C(/C(=O)Nc2ccc([S+]([O-])Cc4cnc(C)cc4C)cc2)CCCN3CC2CCCO2)cc1 (single isomer, unassigned) [WX024]",–
0.00971,–,"CCCCOCCOc1ccc(-c2ccc3c(c2)/C=C(/C(=O)Nc2ccc([S+]([O-])Cc4cnc(C)cc4C)cc2)CCCN3CC2CCCO2)cc1 (single isomer, unassigned) [WX023]",–
0.00561,–,"CCCCOCCOc1ccc(-c2ccc3c(c2)/C=C(/C(=O)Nc2ccc([S+]([O-])Cc4c(C)ccnc4C)cc2)CCCN3CC2CCCO2)cc1 (single isomer, unassigned) [WX020]",–
0.0164,0.00175,"CCCCOCCOc1ccc(-c2ccc3c(c2)/C=C(/C(=O)Nc2ccc([S@+]([O-])Cc4cnc(C)cc4CC)cc2)CCCN3C[C@H]2CCCO2)cc1 (single isomer, unassigned) [WX016]",–
0.0136,–,CCCCOCCOc1ccc(-c2ccc3c(c2)/C=C(/C(=O)Nc2ccc([S+]([O-])Cc4cnc(C)cc4C)cc2)CCCN3CC2CCOCC2)cc1 (stereo not shown) [WX022],–
0.0039,–,"CCCCOCCOc1ccc(-c2ccc3c(c2)C=C(C(=O)Nc2ccc([S+]([O-])Cc4c(C)ccnc4C)cc2)CCCN3CC2CCOCC2)cc1 (single isomer, unassigned) [WX019]",–
0.00426,0.00226,CCCCOCCOc1ccc(-c2ccc3c(c2)/C=C(/C(=O)Nc2ccc([S@+]([O-])Cc4c(CC)ccnc4CC)cc2)CCCN3CC2CCOCC2)cc1 [WX025],–
–,0.0214,"CCCCOCCOc1ccc(-c2ccc3c(c2)C=C(C(=O)Nc2ccc([S+]([O-])Cc4cnc(C)cc4CC)cc2)CCCN3CC2CCCO2)cc1 (single isomer, unassigned) [WX015]",–
–,0.034,"CCCCOCCOc1ccc(-c2ccc3c(c2)/C=C(/C(=O)Nc2ccc([S@+]([O-])Cc4cnc(C)cc4CC)cc2)CCCN3C[C@H]2CCCO2)cc1 (single isomer, unassigned) [WX017]",–
0.0152,–,"CCCCOCCOc1ccc(-c2ccc3c(c2)C=C(C(=O)Nc2ccc([S+]([O-])Cc4c(C)ccnc4C)cc2)CCCN3CC2CCOCC2)cc1 (single isomer, unassigned) [WX018]",–
0.00589,–,"CCCCOCCOc1ccc(-c2ccc3c(c2)/C=C(/C(=O)Nc2ccc([S+]([O-])Cc4c(C)ccnc4C)cc2)CCCN3CC2CCCO2)cc1 (single isomer, unassigned) [WX021]",–

# — patent publication US12466817B2, “Pyridine derivative and application thereof” (Nicoya Therapeutics (Shanghai) Co., Ltd, priority 2020, dated 2025)
